The nature of this data set: bioavailability study, serum [1-38]hPTH by radioimmunoassay. The format is in vivo, rhesus monkeys. The note with it: monkeys, nasal administration. The protocol:
Compositions of Examples 1A, 6 and 9 are administered nasally to rhesus monkeys (n=5) at a dose of 100 μg/kg [1-38]hPTH. A reference composition comprising
and buffered to pH 5.5 with Na2 HPO4 /citric acid is administered i.v. at a dose of 10 μg/kg.
Blood is taken after 10, 20, 30, 45, 60, 90, 240 and 360 min after administration and stored deep frozen at -80° C. until analysed. [1-38]hPTH concentrations in serum are analysed using radioimmunoassay techniques providing a limit of detection of 0.2-0.1 ng/ml. In addition urine is collected and stored deep frozen at -80° C. until analysis of cAMP by RIA techniques.

With `CC[C@H](C)[C@H](NC(=O)[C@H](CCC(=O)O)NC(=O)[C@H](CO)NC(=O)[C@@H](NC(=O)[C@@H](N)CO)C(C)C)C(=O)N[C@@H](CCC(N)=O)C(=O)N[C@@H](CC(C)C)C(=O)N[C@@H](CCSC)C(=O)N[C@@H](Cc1c[nH]cn1)C(=O)N[C@@H](CC(N)=O)C(=O)N[C@@H](CC(C)C)C(=O)NCC(=O)N[C@@H](CCCCN)C(=O)N[C@@H](Cc1c[nH]cn1)C(=O)N[C@@H](CC(C)C)C(=O)N[C@@H](CC(N)=O)C(=O)N[C@@H](CO)C(=O)N[C@@H](CCSC)C(=O)N[C@@H](CCC(=O)O)C(=O)N[C@@H](CCCNC(=N)N)C(=O)N[C@H](C(=O)N[C@@H](CCC(=O)O)C(=O)N[C@@H](Cc1c[nH]c2ccccc12)C(=O)N[C@@H](CC(C)C)C(=O)N[C@@H](CCCNC(=N)N)C(=O)N[C@@H](CCCCN)C(=O)N[C@@H](CCCCN)C(=O)N[C@@H](CC(C)C)C(=O)N[C@@H](CCC(N)=O)C(=O)N[C@@H](CC(=O)O)C(=O)N[C@H](C(=O)N[C@@H](Cc1c[nH]cn1)C(=O)N[C@@H](CC(N)=O)C(=O)N[C@@H](Cc1ccccc1)C(=O)N[C@H](C(=O)N[C@@H](C)C(=O)N[C@@H](CC(C)C)C(=O)NCC(=O)O)C(C)C)C(C)C)C(C)C` [[1-38]hPTH, hPTH[1-38]], the “serum levels reached, based on serum concentration and cumulative urinary excretion” value is “therapeutic [1-38]hPTH serum levels are achieved”.

Source of the values: US5578567A, “Nasal pharmaceutical composition” (Sandoz Ltd., priority 1990, dated 1996).
